From article PMC8095338 (Neuro-oncology Advances, 2021)
Where “and” joins values, the source holds several entries; their conditions need not be identical. Identical values can stand only once.

Assay: Tissue PK, LC-MS/MS
Format: in vivo, minipig
Settings: for concentration at 2 h: male, po, Selumetinib concentration in tissues
Procedure: WT (n = 8) and NF1 (n = 8) minipigs received a single human equivalent oral dose of 450 mg (7.3 mg/kg). Untreated WT (n = 4) and NF1 (n = 4) minipigs were also enrolled as controls. All animals were euthanized 2 h after drug administration. Tissue samples were collected from each animal at the same approximate locations and divided for analysis.
Selumetinib PK studies were performed in plasma, skin, sciatic nerve, optic nerve, and brain. Plasma isolation was performed as described in a previous study.[13] […] Tissues were harvested and immediately transferred to cryovials and stored at −80°C until analysis.
Standard curves and controls were generated using corresponding untreated tissue. Skin tissue was treated with collagenase, and all organ tissues were homogenized. Liquid extraction with ethyl acetate was then performed, followed by analysis. […] The chromatographic separation was performed as described.[13] Mass spectrometric detection was performed using multiple reaction monitoring in positive ionization mode. […] Ion source gases 1 and 2 were set at 50 and 50 psi, respectively; the curtain gas was at 20 psi and the collision gas at 4 psi. […] Data acquisition was performed with analyst 1.4.1 software (MDS-SCIEX).

[1] = 2 h after single oral 7.3 mg/kg, P = .03
[2] = NF1 minipigs n = 8, 2 h after single oral 7.3 mg/kg
[3] = WT minipigs n = 8, 2 h after single oral 7.3 mg/kg
[4] = all 16 minipigs, 2 h after single oral 7.3 mg/kg
[5] = all 16 minipigs, 2 h after single oral 7.3 mg/kg, 7.3 mg/kg
[6] = individual NF1/F minipigs, 2 h after single oral 7.3 mg/kg, 7.3 mg/kg
[7] = individual NF1/M minipigs, 2 h after single oral 7.3 mg/kg, 7.3 mg/kg
[8] = individual WT/F minipigs, 2 h after single oral 7.3 mg/kg, 7.3 mg/kg
[9] = individual WT/M minipigs, 2 h after single oral 7.3 mg/kg, 7.3 mg/kg

## Cn1cnc2c(F)c(Nc3ccc(Br)cc3Cl)c(C(=O)NOCCO)cc21 [selumetinib]
[1]
  mean selumetinib concentration in cerebral cortex, NF1 compared to WT minipigs: higher
  mean selumetinib concentration in optic nerve, NF1 compared to WT minipigs: higher
[2]
  Selumetinib concentration in tissues, Cerebral cortex, Range (NF1): (20-105) ng/g
  Selumetinib concentration in tissues, Optic nerve, Range (NF1): (4-101) ng/g
  Selumetinib concentration in tissues, Sciatic nerve, Range (NF1): (5-36) ng/g
  Selumetinib concentration in tissues, Skin, Range (NF1): (14-155) ng/g
[3]
  Selumetinib concentration in tissues, Cerebral cortex, Range (WT): (15-76) ng/g
  Selumetinib concentration in tissues, Optic nerve, Range (WT): (7-46) ng/g
  Selumetinib concentration in tissues, Sciatic nerve, Range (WT): (6-51) ng/g
  Selumetinib concentration in tissues, Skin, Range (WT): (9-111) ng/g
[4]
  Selumetinib concentration in tissues, Cerebral cortex, Range (All): (15-105) ng/g
  Selumetinib concentration in tissues, Optic nerve, Range (All): (4-101) ng/g
  Selumetinib concentration in tissues, Sciatic nerve, Range (All): (5-51) ng/g
  Selumetinib concentration in tissues, Skin, Range (All): (9-155) ng/g
[5]
  Selumetinib concentration in tissues, Cerebral cortex, Median (All): 51 ng/g
  Selumetinib concentration in tissues, Optic nerve, Median (All): 36 ng/g
  Selumetinib concentration in tissues, Sciatic nerve, Median (All): 25 ng/g
  Selumetinib concentration in tissues, Skin, Median (All): 24 ng/g
[6]
  Selumetinib concentration in tissues, Cerebral cortex: 63 ng/g and 105 ng/g and 101 ng/g and 20 ng/g
  Selumetinib concentration in tissues, Optic nerve: 43 ng/g and 81 ng/g and 101 ng/g and 4 ng/g
  Selumetinib concentration in tissues, Sciatic nerve: 20 ng/g and 10 ng/g and 17 ng/g and 5 ng/g
  Selumetinib concentration in tissues, Skin: 36 ng/g and 155 ng/g and 14 ng/g and 17 ng/g
[7]
  Selumetinib concentration in tissues, Cerebral cortex: 67 ng/g and 83 ng/g and 28 ng/g and 64 ng/g
  Selumetinib concentration in tissues, Optic nerve: 59 ng/g and 34 ng/g
  Selumetinib concentration in tissues, Sciatic nerve: 36 ng/g and 33 ng/g
  Selumetinib concentration in tissues, Skin: 16 ng/g and 79 ng/g and 108 ng/g and 26 ng/g
[8]
  Selumetinib concentration in tissues, Cerebral cortex: 26 ng/g and 42 ng/g and 76 ng/g and 47 ng/g
  Selumetinib concentration in tissues, Optic nerve: 24 ng/g and 26 ng/g and 19 ng/g and 46 ng/g
  Selumetinib concentration in tissues, Sciatic nerve: 46 ng/g and 38 ng/g and 36 ng/g and 16 ng/g
  Selumetinib concentration in tissues, Skin: 22 ng/g and 111 ng/g and 81 ng/g and 12 ng/g
[9]
  Selumetinib concentration in tissues, Cerebral cortex: 20 ng/g and 15 ng/g and 54 ng/g and 44 ng/g
  Selumetinib concentration in tissues, Optic nerve: 35 ng/g and 7 ng/g and 32 ng/g and 36 ng/g
  Selumetinib concentration in tissues, Sciatic nerve: 6 ng/g and 9 ng/g and 51 ng/g and 15 ng/g
  Selumetinib concentration in tissues, Skin: 9 ng/g and 19 ng/g and 32 ng/g
minipig, optic nerve, 7.3 mg/kg, Optic nerve, individual NF1/M minipigs, 2 h after single oral 7.3 mg/kg
  concentration at 2 h: 43 ng/g
minipig, sciatic nerve, 7.3 mg/kg, Sciatic nerve, individual NF1/M minipigs, 2 h after single oral 7.3 mg/kg
  concentration at 2 h: 29 ng/g
minipig, brain / plasma, minipigs, single oral 7.3 mg/kg, read-out: median brain–plasma ratio
  Kp at 2 h: 0.1
